Measured values as given in the supplement of paper PMC10307832.

Columns and labels:
Assay in all cases: relative viability (nuclei count vs DMSO), 5 days (fraction); higher = more cells survive
[1] = compound: O=S(=O)(c1ccccc1)N(CC(F)(F)F)c1ccc(C(O)(C(F)(F)F)C(F)(F)F)cc1 + Cc1cc(Nc2cc(N3CCN(C)CC3)nc(Sc3ccc(NC(=O)C4CC4)cc3)n2)n[nH]1 [Tozasertib] (partner 0.1 µM)
Procedure, shortened: (§1)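 Relative viability was taken as the ratio of nuclei in treated wells to nuclei in vehicle wells. Lung cancer cell lines in 1536-well plates received compounds by pin tool one day after seeding, either one drug alone or a fixed anchor-drug dose plus five library-drug doses (not always all listed) in √10 steps. Nuclei were counted on 4× images after 5 days of treatment, and values are medians of duplicate plates.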

[2] = compound: C1=CC2=C(C=CC(=C2)C=C3C(=O)NC(=NCC4=CC=CS4)S3)N=C1 [RO-3306] + N=C(N)NC(=N)NCCc1ccccc1 [Phenformin] (partner 250 µM)
Procedure, shortened: as §1

[3] = compound: O=S(=O)(c1ccccc1)N(CC(F)(F)F)c1ccc(C(O)(C(F)(F)F)C(F)(F)F)cc1 + Nc1nc2[nH]cc(CCc3ccc(C(=O)N[C@@H](CCC(=O)O)C(=O)O)cc3)c2c(=O)[nH]1 [Pemetrexed] (partner 0.2 µM)
Procedure, shortened: as §1

[4] = compound: C1=CC2=C(C=CC(=C2)C=C3C(=O)NC(=NCC4=CC=CS4)S3)N=C1 [RO-3306] + Cc1nc(NC(=O)N2CCC[C@H]2C(N)=O)sc1-c1ccnc(C(C)(C)C(F)(F)F)c1 [Alpelisib] (partner 2 µM)
Procedure, shortened: as §1

[5] = compound: O=S(=O)(c1ccccc1)N(CC(F)(F)F)c1ccc(C(O)(C(F)(F)F)C(F)(F)F)cc1 + CC(=O)Nc1cccc(-n2c(=O)n(C3CC3)c(=O)c3c(Nc4ccc(I)cc4F)n(C)c(=O)c(C)c32)c1 [Trametinib] (partner 0.02 µM)
Procedure, shortened: as §1

Cell Line	relative viability ([1]; first compound 0.8 µM)	relative viability ([1]; first compound 2.53 µM)	relative viability ([1]; first compound 8 µM)	relative viability ([2]; first compound 0.01 µM)	relative viability ([2]; first compound 0.03162 µM)	relative viability ([2]; first compound 0.1 µM)	relative viability ([2]; first compound 0.3162 µM)	relative viability ([2]; first compound 1 µM)	relative viability ([3]; first compound 0.8 µM)	relative viability ([3]; first compound 2.53 µM)	relative viability ([3]; first compound 8 µM)	relative viability ([4]; first compound 0.01 µM)	relative viability ([4]; first compound 0.03162 µM)	relative viability ([4]; first compound 0.1 µM)	relative viability ([4]; first compound 0.3162 µM)	relative viability ([4]; first compound 1 µM)	relative viability ([5]; first compound 0.8 µM)	relative viability ([5]; first compound 2.53 µM)	relative viability ([5]; first compound 8 µM)
LXF-289	0.213	0.203	0.153	0.52	0.507	0.506	0.543	0.428	0.883	0.82	0.86	1.08	1.01	1.03	1.05	1.05	0.582	0.532	0.518
NCI-H23	0.315	0.307	0.331	0.734	0.762	0.737	0.745	0.668	0.706	0.654	0.74	0.729	0.685	0.573	0.69	0.517	0.392	0.379	0.343
NCI-H322M	0.562	0.575	0.467	0.768	0.661	0.724	0.777	0.791	0.603	0.62	0.595	0.8	0.7	0.707	0.888	0.827	0.497	0.506	0.557
NCI-H358	0.107	0.0905	0.0846	0.363	0.265	0.282	0.289	0.239	–	0.177	0.181	0.868	0.711	0.759	0.809	0.556	–	0.118	0.118
NCI-H441	0.58	0.588	0.697	0.689	0.474	0.783	0.864	0.788	0.25	0.262	0.285	1	0.556	0.563	0.657	0.66	0.387	0.348	0.423
NCI-H460	0.392	0.417	0.243	0.635	0.365	0.496	0.555	0.544	0.0543	0.0599	0.0652	0.571	–	0.503	0.656	0.426	0.198	0.109	0.147
NCI-H520	0.435	0.463	0.476	0.562	0.422	0.425	0.491	0.588	0.757	0.908	0.795	0.992	0.811	0.838	0.854	0.836	0.861	0.603	0.701
NCI-H596	0.907	0.761	0.75	0.77	0.63	0.799	0.758	0.966	0.549	0.528	0.562	0.443	0.48	0.49	0.511	0.432	0.746	0.794	0.724
NCI-H647	0.425	0.325	0.167	0.682	0.304	0.449	0.582	0.392	0.0949	0.156	0.164	1.76	0.954	1.09	1.16	1.28	0.587	0.379	0.352
NCI-H650	0.778	0.771	0.748	0.408	0.411	0.445	0.467	0.457	0.841	0.992	0.851	0.872	0.981	1.03	1.1	1.05	1.1	0.983	0.782
NCI-H661	0.333	0.34	0.361	0.302	0.281	0.268	0.247	0.282	0.908	0.934	0.924	0.736	0.735	0.686	0.745	0.688	0.677	0.574	0.533
NCI-H838	0.278	0.268	0.25	0.756	0.442	0.521	0.653	0.538	0.236	0.242	0.259	0.992	0.972	1.01	1.04	0.999	0.604	0.474	0.596
NCI-H1355	0.555	0.5	0.518	0.429	–	0.516	0.422	0.404	1.12	1.03	1.03	1	0.709	0.872	0.969	0.822	0.456	0.427	0.382
NCI-H1395	0.737	0.671	0.82	0.377	0.479	0.421	0.46	0.459	0.887	0.816	0.924	1.12	1.22	1.1	1.03	1.02	1.13	1	0.965
NCI-H1437	0.411	0.337	0.275	0.317	0.261	0.308	0.297	0.316	0.324	0.308	0.326	1.05	0.868	0.999	1	0.929	0.538	0.36	0.432
NCI-H1651	0.734	0.687	0.564	0.363	0.254	0.341	0.338	0.251	0.726	0.61	0.521	1.07	0.927	0.913	0.867	0.987	0.853	0.867	0.739
NCI-H1666	0.627	0.62	0.545	0.561	0.55	0.515	0.54	0.552	0.768	0.818	0.832	1.02	0.743	0.891	0.973	0.802	0.902	0.845	0.704
